For experiment [1], the system named is HeLa. The experiment can be described thus: Cytotoxicity against human HeLa cells by MTT assay. In kind it is functional, cell-based. Background: Formazan colour is commonly taken as a measure of viable cells.
The test system of experiment [2] is DU-145. Description: Cytotoxicity against human DU145 cells by MTT assay. In kind it is functional, cell-based.
Experiment [3] has as its system DU-145. The experiment can be described thus: Ratio of cyclophosphamide IC50 to compound IC50 for human DU145 cells. In kind it is functional.
The test system of experiment [4] is HeLa. Description: Ratio of cyclophosphamide IC50 to compound IC50 for human HeLa cells. In kind it is functional.
Experiment [5] concerns DU-145. The experiment can be described thus: Ratio of beta-hydroxyisovalerylshikonin IC50 to compound IC50 for human DU145 cells. The format is functional.
Experiment [6] relates to HeLa. Description: Ratio of beta-hydroxyisovalerylshikonin IC50 to compound IC50 for human HeLa cells. The format is functional.

Here are results for 36 compounds from ChEMBL document CHEMBL1821576, “Synthesis and antitumour activity of β-hydroxyisovalerylshikonin analogues” (Eur J Med Chem, 2011).

As a reminder, the IC50 is the concentration at which inhibition is half-maximal. Take `CC(C)=CC[C@@H](OC(=O)CCO)C1=CC(=O)c2c(O)ccc(O)c2C1=O`: the IC50 in the experiment on HeLa [1] is 67.6 µM; with DU-145 [2] it was 55.3 µM.
Take `CCC(O)(CC)CC(=O)O[C@H](CC=C(C)C)C1=CC(=O)c2c(O)ccc(O)c2C1=O`: the IC50 with HeLa [1] was 52 µM; in the experiment with DU-145 [2], 67 µM.
As to `CC(=O)OCCC(=O)O[C@H](CC=C(C)C)C1=CC(=O)c2c(O)ccc(O)c2C1=O`, the IC50 with HeLa [1] turned out to be 17.3 µM; in the experiment with DU-145 [2], 15.7 µM.
On to `CCCCC(CC(=O)O[C@H](CC=C(C)C)C1=CC(=O)c2c(O)ccc(O)c2C1=O)OC(C)=O` (stereo partly drawn), for which the IC50 in the experiment with HeLa [1] is 73.5 µM; in the experiment on DU-145 [2] it was 67.7 µM.
For `CC(C)=CC[C@@H](OC(=O)c1ccoc1)C1=CC(=O)c2c(O)ccc(O)c2C1=O` the same measures were above 100 µM and above 100 µM.
For `CC(C)=CC[C@@H](OC(=O)c1ccco1)C1=CC(=O)c2c(O)ccc(O)c2C1=O` the same measures were 80.3 µM and above 100 µM.
The like results for `CC(C)=CC[C@@H](OC(=O)C1CCOC1)C1=CC(=O)c2c(O)ccc(O)c2C1=O` (stereo partly drawn) were, in that order, 73.5 µM and 47.5 µM.
`CC(C)=CC[C@@H](OC(=O)C1CCCO1)C1=CC(=O)c2c(O)ccc(O)c2C1=O` (stereo partly drawn): the IC50 with HeLa [1] worked out at 17 µM; in the experiment with DU-145 [2], 10.5 µM. Also, the “Ratio IC50” value in the experiment with DU-145 [3] is listed as 5; in the experiment with HeLa [4], 4.
For the compound `CC(C)=CC[C@@H](OC(=O)C1CCCOC1)C1=CC(=O)c2c(O)ccc(O)c2C1=O` (stereo partly drawn), the IC50 turned out to be 60.5 µM in the experiment on HeLa [1] and 29.7 µM in the experiment with DU-145 [2].
Take `CC(C)=CC[C@@H](OC(=O)C1CCCCO1)C1=CC(=O)c2c(O)ccc(O)c2C1=O` (stereo partly drawn): the concentration for half-maximal inhibition (IC50) in the experiment with HeLa [1] was above 100 µM; with DU-145 [2] it was 24.7 µM.
`CC(C)=CC[C@@H](OCCO)C1=CC(=O)c2c(O)ccc(O)c2C1=O`: the IC50 with HeLa [1] stood at 18.6 µM; with DU-145 [2], 9.9 µM. Also, the “Ratio IC50” value with DU-145 [3] is given as 5; in the experiment on HeLa [4], 4; with DU-145 [5] it was 2; in the experiment on HeLa [6], 3.
As for `CC(=O)OCCO[C@H](CC=C(C)C)C1=CC(=O)c2c(O)ccc(O)c2C1=O`, the IC50 in the experiment with HeLa [1] was 41.5 µM; in the experiment with DU-145 [2], 15.5 µM.
The like results for `COCCO[C@H](CC=C(C)C)C1=CC(=O)c2c(O)ccc(O)c2C1=O` were, in that order, 62.4 µM and 43.2 µM.
As to `CC[C@@](C)(O)CC(=O)O[C@H](CC=C(C)C)C1=CC(=O)c2c(O)ccc(O)c2C1=O`, the IC50 in the experiment with HeLa [1] was 17.9 µM; with DU-145 [2], 12.7 µM.
The like results for `CC(C)=CC[C@@H](OC[C@@H](C)O)C1=CC(=O)c2c(O)ccc(O)c2C1=O` were, in that order, 22.5 µM and 14.3 µM.
The like results for `CC(C)=CC[C@@H](OC[C@H](C)O)C1=CC(=O)c2c(O)ccc(O)c2C1=O` were, in that order, 40.3 µM and 24.5 µM.
The like results for `CCCCC(C)(O)CC(=O)O[C@H](CC=C(C)C)C1=CC(=O)c2c(O)ccc(O)c2C1=O` (mixture of isomers) were, in that order, 60.6 µM and 76.5 µM.
For `CCCC(O)CC(=O)O[C@H](CC=C(C)C)C1=CC(=O)c2c(O)ccc(O)c2C1=O` (mixture of isomers), the values for the IC50 with HeLa [1] and with DU-145 [2] were 59.3 µM and above 100 µM, respectively.
In the case of `CCCCC(O)CC(=O)O[C@H](CC=C(C)C)C1=CC(=O)c2c(O)ccc(O)c2C1=O` (mixture of isomers), the IC50 with HeLa [1] worked out at 72.2 µM; in the experiment on DU-145 [2] it was 45.3 µM.
As to `CC(C)=CC[C@@H](OC(=O)CC(O)c1ccccc1)C1=CC(=O)c2c(O)ccc(O)c2C1=O` (mixture of isomers), the values for the IC50 in the experiment with HeLa [1] and in the experiment with DU-145 [2] were 44.5 µM and 17 µM, respectively.
On to `CCC(C)(O)CC(=O)O[C@H](CC=C(C)C)C1=CC(=O)c2c(O)ccc(O)c2C1=O` (mixture of isomers), for which the IC50 with HeLa [1] is 25.2 µM; in the experiment on DU-145 [2], 16 µM.
For `CCCC(C)(O)CC(=O)O[C@H](CC=C(C)C)C1=CC(=O)c2c(O)ccc(O)c2C1=O` (mixture of isomers) the same measures were 72 µM and 75 µM.
On to `CC(C)=CC[C@@H](OC(=O)CC(C)(O)C(C)C)C1=CC(=O)c2c(O)ccc(O)c2C1=O` (mixture of isomers), for which the 50% inhibitory concentration (IC50) was determined as 27.7 µM with HeLa [1] and 16.9 µM in the experiment on DU-145 [2].
Regarding `CCCCCCC(C)(O)CC(=O)O[C@H](CC=C(C)C)C1=CC(=O)c2c(O)ccc(O)c2C1=O` (mixture of isomers), the IC50 in the experiment with HeLa [1] and with DU-145 [2] was above 100 µM in each case.
Turning to `CC(C)=CC[C@@H](OC(=O)CC(C)(O)c1ccccc1)C1=CC(=O)c2c(O)ccc(O)c2C1=O` (mixture of isomers), the IC50 in the experiment with HeLa [1] is 85.7 µM; in the experiment on DU-145 [2], above 100 µM.
Consider `CCCC(CC(=O)O[C@H](CC=C(C)C)C1=CC(=O)c2c(O)ccc(O)c2C1=O)OC(C)=O` (mixture of isomers), for which the IC50 in the experiment on HeLa [1] worked out at 51.2 µM; in the experiment on DU-145 [2] it was 55.7 µM.
The like results for `CC(C)=CC[C@@H](OCC(C)O)C1=CC(=O)c2c(O)ccc(O)c2C1=O` (mixture of isomers) were, in that order, 24.7 µM and 16.1 µM.
For `CCC(O)CO[C@H](CC=C(C)C)C1=CC(=O)c2c(O)ccc(O)c2C1=O` (mixture of isomers) the same measures were 28.7 µM and 16.4 µM.
As for `CC(=O)OC(C)CO[C@H](CC=C(C)C)C1=CC(=O)c2c(O)ccc(O)c2C1=O` (mixture of isomers), the IC50 in the experiment on HeLa [1] is 40.1 µM; with DU-145 [2] it was 16.6 µM.
As to `CCC(CO[C@H](CC=C(C)C)C1=CC(=O)c2c(O)ccc(O)c2C1=O)OC(C)=O` (mixture of isomers), the figures for the IC50 with HeLa [1] and in the experiment with DU-145 [2] were 44 µM and 25.4 µM, respectively.
For `COC(C)CO[C@H](CC=C(C)C)C1=CC(=O)c2c(O)ccc(O)c2C1=O` (mixture of isomers) the same measures were 53.4 µM and 16.6 µM.
Turning to `CCC(CO[C@H](CC=C(C)C)C1=CC(=O)c2c(O)ccc(O)c2C1=O)OC` (mixture of isomers), the IC50 in the experiment with HeLa [1] amounted to 63.5 µM; with DU-145 [2], 45.7 µM.
On to `CC[C@](C)(O)CC(=O)O[C@H](CC=C(C)C)C1=CC(=O)c2c(O)ccc(O)c2C1=O` (racemic), for which the IC50 came to 30.2 µM in the experiment on HeLa [1] and 20.5 µM with DU-145 [2].
For `CC(C)=CC[C@@H](OC(=O)CC(C)(C)O)C1=CC(=O)c2c(O)ccc(O)c2C1=O` [BETA-HYDROXYISOVALERYLSHIKONIN] the same measures were 55 µM and 16.8 µM.
The like results for `O=P1(N(CCCl)CCCl)NCCCO1` (stereo not drawn) [CYCLOPHOSPHAMIDE ANHYDROUS] were, in that order, 71.4 µM and 52.5 µM.
In the case of `O=c1[nH]cc(F)c(=O)[nH]1` [FLUOROURACIL], the IC50 in the experiment with HeLa [1] and with DU-145 [2] was above 100 µM each time.
